Measurements as given in ChEMBL document CHEMBL4342484, “Structure-Activity Relationship for the Oxadiazole Class of Antibacterials” (ACS Med Chem Lett, 2020).
Values after ≈ are worked out from the molar mass of the structure shown.

What was measured:
Staphylococcus aureus = assay: Antibacterial activity against Staphylococcus aureus ATCC 29213 by broth microdilution method; type: functional
HepG2 = assay: Cytotoxicity against human HepG2 cells assessed as reduction in cell viability by XTT assay; type: cell-based
[1] = Hemolytic activity in human RBC relative to control; type: ADME, cell-based, Erythrocyte; settings: red blood cells (erythrocytes), read-out: Activity
[2] = Plasma protein binding in human at […] incubated for 2 hrs by UPLC analysis; type: ADME, cell-free; settings: read-out: PPB (converted)

SMILES	MIC (Staphylococcus aureus)	further results
CC(=O)NCCOc1ccc(-c2noc(-c3ccc(O)cc3)n2)cc1	> 128 µg/mL	–
Oc1ccc(-c2nc(-c3ccc(OC4CN5CCC4CC5)cc3)no2)cc1 (stereo not drawn)	64 µg/mL (≈ 176 µM)	–
Oc1ccc(-c2nc(-c3ccc4oc5ccccc5c4c3)no2)cc1	≥ 128 µg/mL	–
Oc1ccc(-c2nc(-c3ccc(Oc4ccc(I)cc4)cc3)no2)cc1	4 µg/mL (≈ 8.77 µM)	–
CC(C)(C)OC(=O)NC1CCC(Oc2ccc(-c3noc(-c4ccc(O)cc4)n3)cc2)CC1 (stereo not drawn)	≥ 128 µg/mL	–
COc1ccc2oc3ccc(-c4noc(-c5ccc(O)cc5)n4)cc3c2c1	≥ 128 µg/mL	–
Oc1ccc(-c2nc(-c3ccc4oc5ccc(C(F)(F)F)cc5c4c3)no2)cc1	≥ 128 µg/mL	–
CS(=O)(=O)c1ccc(Oc2ccc(-c3noc(-c4n[nH]cc4Cl)n3)cc2)cc1	128 µg/mL (≈ 307 µM)	–
FC(F)(F)Oc1ccc(-c2noc(-c3n[nH]cc3Cl)n2)cc1	≥ 128 µg/mL	–
CN1CCCC(Oc2ccc(-c3noc(-c4n[nH]cc4Cl)n3)cc2)C1 (stereo not drawn)	128 µg/mL (≈ 356 µM)	–
CN1CCCC(Oc2ccc(-c3noc(-c4ccc(O)cc4)n3)cc2)C1 (stereo not drawn)	64 µg/mL (≈ 182 µM)	–
CN(C)C(=O)Oc1ccc(-c2noc(-c3ccc(O)cc3)n2)cc1	≥ 128 µg/mL	–
Clc1c[nH]nc1-c1nc(-c2ccc(OC3CN4CCC3CC4)cc2)no1 (stereo not drawn)	128 µg/mL (≈ 344 µM)	–
CS(=O)(=O)Oc1ccc(-c2noc(-c3ccc(O)cc3)n2)cc1	≥ 128 µg/mL	–
CN(C)C(=O)CCOc1ccc(-c2noc(-c3ccc(O)cc3)n2)cc1	≥ 128 µg/mL	–
O=C(O)c1ccc(Oc2ccc(-c3noc(-c4ccc(O)cc4)n3)cc2)cc1	64 µg/mL (≈ 171 µM)	–

SMILES	MIC (Staphylococcus aureus)	further results
CN1[C@@H]2CC[C@@H]1CC(Oc1ccc(-c3noc(-c4n[nH]cc4Cl)n3)cc1)C2 (stereo partly drawn)	64 µg/mL (≈ 166 µM)	–
Oc1ccc(Oc2ccc(-c3noc(-c4ccc(O)cc4)n3)cc2)cc1	16 µg/mL (≈ 46.2 µM)	–
Cl.Oc1ccc(-c2nc(-c3ccc(OC4CCNC4)cc3)no2)cc1 (stereo not drawn)	16 µg/mL	–
Oc1ccc(-c2nc(-c3ccc(Oc4ccc(OC(F)(F)F)cc4)cc3)no2)cc1	2 µg/mL (≈ 4.83 µM)	IC50 (HepG2): 16.9 µg/mL (≈ 40.8 µM); hemolysis [1]: 2.1%; fraction unbound at 2 h [2]: 0.002
Cl.NC1CCC(Oc2ccc(-c3noc(-c4ccc(O)cc4)n3)cc2)CC1 (stereo not drawn)	≥ 128 µg/mL	–
Fc1ccc(Oc2ccc(-c3noc(-c4n[nH]cc4Cl)n3)cc2)cc1Cl	2 µg/mL (≈ 5.11 µM)	IC50 (HepG2): 21 µg/mL (≈ 53.7 µM); hemolysis [1]: 2.9%; fraction unbound at 2 h [2]: 0.088
CC(C)(C)OC(=O)N1CCC(Oc2ccc(-c3noc(-c4n[nH]cc4Cl)n3)cc2)C1 (stereo not drawn)	≥ 128 µg/mL	–
Oc1ccc(-c2nc(-c3ccc4oc5ccc(F)cc5c4c3)no2)cc1	≥ 128 µg/mL	–
O=[N+]([O-])c1ccccc1Oc1ccc(-c2noc(-c3ccc(O)cc3)n2)cc1	4 µg/mL (≈ 10.7 µM)	–
Oc1ccc(-c2nc(-c3ccc(OC4CNC4)cc3)no2)cc1	64 µg/mL (≈ 207 µM)	–
CN1[C@@H]2CC[C@@H]1CC(Oc1ccc(-c3noc(-c4ccc(O)cc4)n3)cc1)C2 (stereo partly drawn)	32 µg/mL (≈ 84.8 µM)	–
N#Cc1ccc(Oc2ccc(-c3noc(-c4ccc(O)cc4)n3)cc2)cc1	≥ 128 µg/mL	–
Fc1ccc(Oc2ccc(-c3noc(-c4n[nH]cc4Cl)n3)cc2)cc1F	0.5 µg/mL (≈ 1.33 µM)	IC50 (HepG2): 17.7 µg/mL (≈ 47.2 µM); hemolysis [1]: 1.3%; fraction unbound at 2 h [2]: 0.011
Oc1ccc(-c2nc(-c3ccc(Oc4ccccn4)cc3)no2)cc1	≥ 128 µg/mL	–
O=C(O)c1cccc(Oc2ccc(-c3noc(-c4ccc(O)cc4)n3)cc2)c1	64 µg/mL (≈ 171 µM)	–
Oc1ccc(-c2nc(-c3ccc4c(c3)Oc3ccccc3O4)no2)cc1	≥ 128 µg/mL	–

Further lines, with some results ahead:

MIC (Staphylococcus aureus)	SMILES	further results
≥ 128 µg/mL	CC(C)(C)OC(=O)NCCCOc1ccc(-c2noc(-c3ccc(O)cc3)n2)cc1	–
≥ 128 µg/mL	CC(C)S(=O)(=O)Oc1ccc(-c2noc(-c3ccc(O)cc3)n2)cc1	–
≥ 128 µg/mL	Cl.Clc1c[nH]nc1-c1nc(-c2ccc(OC3CCCNC3)cc2)no1 (stereo not drawn)	–
2 µg/mL (≈ 5.39 µM)	[N-]=[N+]=Nc1cccc(Oc2ccc(-c3noc(-c4ccc(O)cc4)n3)cc2)c1	–
4 µg/mL (≈ 9.38 µM)	O=C(c1cccc(Oc2ccc(-c3noc(-c4ccc(O)cc4)n3)cc2)c1)C(F)(F)F	–
4 µg/mL (≈ 8.77 µM)	Oc1ccc(-c2nc(-c3ccc(Oc4cccc(I)c4)cc3)no2)cc1	–
2 µg/mL (≈ 4.89 µM)	Oc1ccc(-c2nc(-c3ccc(Oc4ccc(Br)cc4)cc3)no2)cc1	–
> 128 µg/mL	O=C(O)c1ccccc1Oc1ccc(-c2noc(-c3ccc(O)cc3)n2)cc1	–
4 µg/mL (≈ 9.45 µM)	Oc1ccc(-c2nc(-c3ccc(Oc4cccc(CBr)c4)cc3)no2)cc1	–
> 128 µg/mL	FC(F)(F)Oc1ccc2oc3ccc(-c4noc(-c5n[nH]cc5Cl)n4)cc3c2c1	–
32 µg/mL (≈ 119 µM)	COc1ccc(-c2noc(-c3ccc(O)cc3)n2)cc1	–
1 µg/mL (≈ 3.1 µM)	Oc1ccc(-c2nc(-c3ccc(OC(F)(F)F)cc3)no2)cc1	IC50 (HepG2): 84.9 µg/mL (≈ 263 µM); hemolysis [1]: 16%
≥ 128 µg/mL	CC(=O)N1CCC(Oc2ccc(-c3noc(-c4ccc(O)cc4)n3)cc2)CC1	–
≥ 128 µg/mL	CC(C)(C)Oc1ccc(-c2noc(-c3ccc(O)cc3)n2)cc1	–
2 µg/mL (≈ 4.38 µM)	Oc1ccc(-c2nc(-c3ccc(Oc4ccccc4I)cc3)no2)cc1	–
≥ 128 µg/mL	Nc1ccccc1Oc1ccc(-c2noc(-c3ccc(O)cc3)n2)cc1	–
1 µg/mL (≈ 2.15 µM)	Clc1c[nH]nc1-c1nc(-c2ccc(Oc3ccc(I)cc3)cc2)no1	IC50 (HepG2): 30.7 µg/mL (≈ 66.1 µM); hemolysis [1]: 3.1%; fraction unbound at 2 h [2]: 0.095
≥ 128 µg/mL	Oc1ccc(-c2nc(-c3ccc(Oc4ccc(CBr)cc4)cc3)no2)cc1	–
1 µg/mL (≈ 2.45 µM)	Clc1ccc(Oc2ccc(-c3noc(-c4n[nH]cc4Cl)n3)cc2)cc1Cl	IC50 (HepG2): 17.2 µg/mL (≈ 42.2 µM); hemolysis [1]: 1.8%; fraction unbound at 2 h [2]: 0.022
16 µg/mL	Cl.NCCCOc1ccc(-c2noc(-c3ccc(O)cc3)n2)cc1	–

MIC (Staphylococcus aureus)	SMILES	further results
≥ 128 µg/mL	Oc1ccc(-c2nc(-c3ccc(OC4CCOC4)cc3)no2)cc1 (stereo not drawn)	–
≥ 128 µg/mL	CC(C)(C)OC(=O)N1CCC(Oc2ccc(-c3noc(-c4n[nH]cc4Cl)n3)cc2)CC1	–
≥ 128 µg/mL	NC(=O)c1ccccc1Oc1ccc(-c2noc(-c3ccc(O)cc3)n2)cc1	–
2 µg/mL (≈ 5.55 µM)	COc1ccc(Oc2ccc(-c3noc(-c4ccc(O)cc4)n3)cc2)cc1	–
≥ 128 µg/mL	Oc1ccc(-c2noc(-c3ccc(O)cc3)n2)cc1	–
≥ 128 µg/mL	FC(F)(F)Oc1ccc(-c2noc(-c3ccc4[nH]ccc4c3)n2)cc1	–
≥ 128 µg/mL	OCc1ccccc1Oc1ccc(-c2noc(-c3ccc(O)cc3)n2)cc1	–
8 µg/mL (≈ 18.9 µM)	Oc1ccc(-c2nc(-c3ccc(Oc4ccccc4CBr)cc3)no2)cc1	–
≥ 128 µg/mL	CC(=O)c1ccc(Oc2ccc(-c3noc(-c4n[nH]cc4Cl)n3)cc2)cc1	–
4 µg/mL (≈ 9.77 µM)	Oc1ccc(-c2nc(-c3ccc(Oc4cccc(Br)c4)cc3)no2)cc1	–
≥ 128 µg/mL	Clc1c[nH]nc1-c1nc(-c2ccc(OC3CCNCC3)cc2)no1	–
128 µg/mL (≈ 352 µM)	N#Cc1ccc(Oc2ccc(-c3noc(-c4n[nH]cc4Cl)n3)cc2)cc1	–
≥ 128 µg/mL	COc1ccc(-c2noc(-c3n[nH]cc3Cl)n2)cc1	–
16 µg/mL (≈ 47.4 µM)	Oc1ccc(-c2nc(-c3ccc(OC4CCNCC4)cc3)no2)cc1	–
16 µg/mL (≈ 39 µM)	Cc1nc2cc(Oc3ccc(-c4noc(-c5n[nH]cc5Cl)n4)cc3)ccc2s1	–
≥ 128 µg/mL	Clc1c[nH]nc1-c1nc(-c2ccc(OC3CCCC3)cc2)no1	–
64 µg/mL (≈ 190 µM)	Oc1ccc(-c2nc(-c3ccc(OC4CCCNC4)cc3)no2)cc1 (stereo not drawn)	–
2 µg/mL (≈ 5.39 µM)	[N-]=[N+]=Nc1ccc(Oc2ccc(-c3noc(-c4ccc(O)cc4)n3)cc2)cc1	–
2 µg/mL (≈ 5.39 µM)	[N-]=[N+]=Nc1ccccc1Oc1ccc(-c2noc(-c3ccc(O)cc3)n2)cc1	–
